From patent EP4548976A1, “ANTIVIRAL COMPOUNDS AND COMPOSITIONS THEREFROM” (Consejo Superior De Investigaciones Científicas, priority 2023, dated 2025)

Tests used:
[1] = test system: SARS-CoV-2 stock strain NL/2020; experiment: Antiviral activity in A549-ACE2 cells using viral antigen quantitation (SARS-CoV-2 N protein immunofluorescence); assay type: cell-based; conditions: Severe acute respiratory syndrome coronavirus 2, MOI 0.005, 48 h; for EC50: concentration reducing SARS-CoV-2 infection efficiency by 50% vs vehicle; for EC90: concentration reducing SARS-CoV-2 infection efficiency by 90% vs vehicle
in vitro = conditions: human

Row | SMILES | EC50 [1] | EC90 [1] | CC50 (in vitro)
1 | COC(=O)c1cc(-c2cnn(Cc3ccccc3)c2)ccc1NC(C#N)[C@H](Cc1c[nH]c2ccccc12)NC(=O)OC(C)(C)C (mixture of isomers) [Example 17, Methyl 5-(1-benzyl-1H-pyrazol-4-yl)-2-(((1RS,2S)-2-((tert-butoxycarbonyl)amino)-1-cyano-3-(1H-indol-3-yl)propyl)amino)benzoate] | 1 µM | 2 µM | > 50 µM
2 | COC(=O)c1cc(-c2ccc3[nH]ccc3c2)ccc1NC(C#N)[C@H](Cc1c[nH]c2ccccc12)NC(=O)OC(C)(C)C (mixture of isomers) [Example 9, Methyl 2-(((1RS,2S)-2-((tert-butoxycarbonyl)amino)-1-cyano-3-(1H-indol-3-yl)propyl)amino)-5-(1H-indol-5-yl)benzoate] | < 0.4 µM | 5 µM | 50 µM
3 | COC(=O)c1cc(-c2ccc(N3CCOCC3)cc2)ccc1NC(C#N)[C@H](Cc1c[nH]c2ccc(Br)cc12)NC(=O)OC(C)(C)C (mixture of isomers) [Example 1, Methyl 4-(((1RS,2S)-3-(5-bromo-1H-indol-3-yl)-2-((tert-butoxycarbonyl)amino)-1-cyanopropyl)amino)-4'-morpholino-[1,1'-biphenyl]-3-carboxylate] | 0.8 µM | 6 µM | > 50 µM
4 | COC(=O)c1cc(-c2c[nH]c3ncccc23)ccc1NC(C#N)[C@H](Cc1c[nH]c2ccccc12)NC(=O)OC(C)(C)C (mixture of isomers) [Example 18, Methyl 2-(((1RS,2S)-2-((tert-butoxycarbonyl)amino)-1-cyano-3-(1H-indol-3-yl)propyl)amino)-5-(1H-pyrrolo[2,3-b]pyridin-3-yl)benzoate] | 6 µM | 9 µM | 10 µM
5 | COC(=O)c1cc(-c2ccc3[nH]cnc3c2)ccc1NC(C#N)[C@H](Cc1c[nH]c2ccccc12)NC(=O)OC(C)(C)C (mixture of isomers) [Example 15, Methyl 5-(1H-benzo[d]imidazol-5-yl)-2-(((1RS,2S)-2-((tert-butoxycarbonyl)amino)-1-cyano-3-(1H-indol-3-yl)propyl)amino)benzoate] | 1 µM | 4 µM | 50 µM
6 | COC(=O)c1cc(C2=CCN(C(=O)OC(C)(C)C)CC2)ccc1NC(C#N)[C@H](Cc1c[nH]c2ccccc12)NC(=O)OC(C)(C)C (mixture of isomers) [Example 14, tert-Butyl 4-(4-(((1RS,2S)-2-((tert-butoxycarbonyl)amino)-1-cyano-3-(1H-indol-3-yl)propyl)amino)-3-(methoxycarbonyl)phenyl)-3,6-dihydropyridine-1(2H)-carboxylate] | 7 µM | 16 µM | > 50 µM
7 | COC(=O)c1cc(-c2ccc3[nH]ccc3c2)ccc1NC(C#N)[C@@H](Cc1c[nH]c2ccccc12)NC(=O)OC(C)(C)C (mixture of isomers) [Example 27, Methyl 2-(((1RS,2R)-2-((tert-butoxycarbonyl)amino)-1-cyano-3-(1H-indol-3-yl)propyl)amino)-5-(1H-indol-5-yl)benzoate] | 7 µM | 9 µM | 35 µM
8 | COC(=O)c1cc(-c2ccnc(N3CCOCC3)c2)ccc1NC(C#N)[C@H](Cc1c[nH]c2ccccc12)NC(=O)OC(C)(C)C (mixture of isomers) [Example 7, Methyl 2-(((1RS,2S)-2-((tert-butoxycarbonyl)amino)-1-cyano-3-(1H-indol-3-yl)propyl)amino)-5-(2-morpholinopyridin-4-yl)benzoate] | 1.1 µM | 6 µM | > 50 µM
9 | COC(=O)c1cc(-c2cc3ccccc3s2)ccc1NC(C#N)[C@H](Cc1c[nH]c2ccccc12)NC(=O)OC(C)(C)C (mixture of isomers) [Example 13, Methyl 5-(benzo[b]thiophen-2-yl)-2-(((1RS,2S)-2-((tert-butoxycarbonyl)amino)-1-cyano-3-(1H-indol-3-yl)propyl)amino)benzoate] | 1.85 µM | 5 µM | 13 µM
10 | COC(=O)c1cc(-c2cccc3[nH]ncc23)ccc1NC(C#N)[C@H](Cc1c[nH]c2ccccc12)NC(=O)OC(C)(C)C (mixture of isomers) [Example 30, Methyl 2-(((1RS,2S)-2-((tert-butoxycarbonyl)amino)-1-cyano-3-(1H-indol-3-yl)propyl)amino)-5-(1H-indazol-4-yl)benzoate] | 1 µM | 2 µM | 10 µM
11 | COC(=O)c1cc(-c2ccc3c(c2)OCCO3)ccc1NC(C#N)[C@@H](Cc1c[nH]c2ccccc12)NC(=O)OC(C)(C)C (mixture of isomers) [Example 28, Methyl 2-(((1RS,2R)-2-((tert-butoxycarbonyl)amino)-1-cyano-3-(1H-indol-3-yl)propyl)amino)-5-(2,3-dihydrobenzo[b][1,4]dioxin-6-yl)benzoate] | 7 µM | 30 µM | > 50 µM
12 | COC(=O)c1cc(-c2ccc3cc[nH]c3c2)ccc1NC(C#N)[C@H](Cc1c[nH]c2ccccc12)NC(=O)OC(C)(C)C (mixture of isomers) [Example 11, Methyl 2-(((1RS,2S)-2-((tert-butoxycarbonyl)amino)-1-cyano-3-(1H-indol-3-yl)propyl)amino)-5-(1H-indol-6-yl)benzoate] | 4 µM | 8 µM | 30 µM
13 | COC(=O)c1cc(-c2ccc(C(=O)N3CCOCC3)cc2)ccc1NC(C#N)[C@H](Cc1c[nH]c2ccccc12)NC(=O)OC(C)(C)C (mixture of isomers) [Example 8, Methyl 4-(((1RS,2S)-2-((tert-butoxycarbonyl)amino)-1-cyano-3-(1H-indol-3-yl)propyl)amino)-4'-(morpholine-4-carbonyl)-[1,1'-biphenyl]-3-carboxylate] | 0.9 µM | 2 µM | > 50 µM
14 | COC(=O)c1cc(-c2ccc3ocnc3c2)ccc1NC(C#N)[C@H](Cc1c[nH]c2ccccc12)NC(=O)OC(C)(C)C (mixture of isomers) [Example 24, Methyl 5-(benzo[d]oxazol-5-yl)-2-(((1RS,2S)-2-((tert-butoxycarbonyl)amino)-1-cyano-3-(1H-indol-3-yl)propyl)amino)benzoate] | 6 µM | 9 µM | > 50 µM
15 | CC(C)(C)OC(=O)N[C@@H](Cc1c[nH]c2ccccc12)C(C#N)Nc1ccccc1C(=O)N1CCCCCC1 (mixture of isomers) [Example 31, tert-Butyl ((1RS,2S)-1-((2-(azepane-1-carbonyl)phenyl)amino)-1-cyano-3-(1H-indol-3-yl)propan-2-yl)carbamate] | 8 µM | 39 µM | 36 µM
16 | C#Cc1ccc(-c2cccc3[nH]cc(C[C@H](NC(=O)OC(C)(C)C)C(C#N)Nc4ccc(-c5ccc(N6CCOCC6)cc5)cc4C(=O)OC)c23)cc1 (mixture of isomers) [Example 6, Methyl 4-(((1RS,2S)-2-((tert-butoxycarbonyl)amino)-1-cyano-3-(4-(4-ethynylphenyl)-1H-indol-3-yl)propyl)amino)-4'-morpholino-[1,1'-biphenyl]-3-carboxylate] | 8 µM | 20 µM | > 50 µM
17 | COC(=O)c1cc(-c2ccc(NC(C)=O)nc2)ccc1NC(C#N)[C@H](Cc1c[nH]c2ccccc12)NC(=O)OC(C)(C)C (mixture of isomers) [Example 29, Methyl 5-(6-acetamidopyridin-3-yl)-2-(((1RS,2S)-2-((tert-butoxycarbonyl)amino)-1-cyano-3-(1H-indol-3-yl)propyl)amino)benzoate] | 3 µM | 8 µM | > 50 µM
18 | COC(=O)c1cc(-c2ccc(N3CCOCC3)cc2)ccc1NC(C#N)[C@H](Cc1c[nH]c2c(Br)cccc12)NC(=O)OC(C)(C)C (mixture of isomers) [Example 3, Methyl 4-(((1RS,2S)-3-(7-bromo-1H-indol-3-yl)-2-((tert-butoxycarbonyl)amino)-1-cyanopropyl)amino)-4'-morpholino-[1,1'-biphenyl]-3-carboxylate] | 3.5 µM | 8 µM | > 50 µM
19 | COC(=O)c1cc(-c2ccc3c(ccn3C(=O)OC(C)(C)C)c2)ccc1NC(C#N)[C@H](Cc1c[nH]c2ccccc12)NC(=O)OC(C)(C)C (mixture of isomers) [Example 19, tert-Butyl 5-(4-(((1RS,2S)-2-((tert-butoxycarbonyl)amino)-1-cyano-3-(1H-indol-3-yl)propyl)amino)-3-(methoxycarbonyl)phenyl)-1H-indole-1-carboxylate] | 6 µM | 31 µM | > 50 µM
20 | COC(=O)c1cc(-c2cnn(CCN3CCOCC3)c2)ccc1NC(C#N)[C@H](Cc1c[nH]c2ccccc12)NC(=O)OC(C)(C)C (mixture of isomers) [Example 25, Methyl 2-(((1RS,2S)-2-((tert-butoxycarbonyl)amino)-1-cyano-3-(1H-indol-3-yl)propyl)amino)-5-(1-(2-morpholinoethyl)-1H-pyrazol-4-yl)benzoate] | 6 µM | 9 µM | > 50 µM
21 | CC(C)(C)OC(=O)N[C@H](Cc1c[nH]c2ccccc12)C(C#N)Nc1ccc(Br)cc1C(=O)c1ccccc1 (mixture of isomers) [Example 26, tert-Butyl ((1RS,2R)-1-((2-benzoyl-4-bromophenyl)amino)-1-cyano-3-(1H-indol-3-yl)propan-2-yl)carbamate] | 6 µM | 28 µM | 50 µM
22 | COC(=O)c1cc(-c2ccc(F)c(-c3nn[nH]n3)c2)ccc1NC(C#N)[C@H](Cc1c[nH]c2ccccc12)NC(=O)OC(C)(C)C (mixture of isomers) [Example 21, Methyl 4-(((1RS,2S)-2-((tert-butoxycarbonyl)amino)-1-cyano-3-(1H-indol-3-yl)propyl)amino)-4'-fluoro-3'-(2H-tetrazol-5-yl)-[1,1'-biphenyl]-3-carboxylate] | 6 µM | > 50 µM | > 50 µM
